Data: ChEMBL document CHEMBL5108078, “Design and Synthesis of Phenyl Sulfide-Based Cationic Amphiphiles as Membrane-Targeting Antimicrobial Agents against Gram-Positive Pathogens” (J Med Chem, 2022)
Values after ≈ are worked out from the molar mass of the structure shown.

Assays:
Staphylococcus aureus [1] = experiment: Antibacterial activity against methicillin resistant Staphylococcus aureus NCTC10442 assessed as inhibition of bacterial growth incubated for 24 hrs by microbroth dilution method; type: functional
Staphylococcus aureus [2] = experiment: Antibacterial activity against methicillin resistant Staphylococcus aureus N315 assessed as inhibition of bacterial growth incubated for 24 hrs by microbroth dilution method; type: functional
[3] = Hemolytic activity in rabbit RBC incubated for 1 hr by microplate reader analysis; type: toxicity, cell-based, Oryctolagus cuniculus, Erythrocyte; settings: rabbit red blood cells (erythrocytes)
Staphylococcus aureus [4] = experiment: Antibacterial activity against Staphylococcus aureus ATCC 29213 assessed as inhibition of bacterial growth incubated for 24 hrs by microbroth dilution method; type: functional
Staphylococcus aureus [5] = experiment: Antibacterial activity against Staphylococcus aureus ATCC 15981 assessed as inhibition of bacterial growth incubated for 24 hrs by microbroth dilution method; type: functional
Enterococcus faecalis = experiment: Antibacterial activity against Enterococcus faecalis ATCC 29212 assessed as inhibition of bacterial growth incubated for 24 hrs by microbroth dilution method; type: functional
Bacillus subtilis = experiment: Antibacterial activity against Bacillus subtilis CMCC63501 assessed as inhibition of bacterial growth incubated for 24 hrs by microbroth dilution method; type: functional
[6] = test system: Staphylococcus epidermidis; experiment: Antibacterial activity against Staphylococcus epidermidis ATCC 12228 assessed as inhibition of bacterial growth incubated for 24 hrs by microbroth dilution method; type: functional
[7] = test system: Staphylococcus epidermidis; experiment: Antibacterial activity against Staphylococcus epidermidis CMCC26069 assessed as inhibition of bacterial growth incubated for 24 hrs by microbroth dilution method; type: functional

Row | Structure (SMILES) | MIC (Staphylococcus aureus [1]) | MIC (Staphylococcus aureus [2]) | HC50 at 1 h [3] | MIC (Staphylococcus aureus [4]) | MIC (Staphylococcus aureus [5]) | MIC (Enterococcus faecalis) | MIC (Bacillus subtilis) | MIC [6] | MIC [7]
1 | Oc1ccc(Cl)cc1Sc1cc(Cl)ccc1O [FENTICLOR] | > 50 µg/mL | > 50 µg/mL | > 200 µg/mL | > 50 µg/mL | – | – | – | – | –
2 | CCOC(=O)COc1ccc(C(C)(C)CC(C)(C)C)cc1Sc1cc(C(C)(C)CC(C)(C)C)ccc1O | > 50 µg/mL | > 50 µg/mL | > 200 µg/mL | > 50 µg/mL | – | – | – | – | –
3 | COC(=O)[C@H](CCCNC(=N)N)NC(=O)[C@H](CCCNC(=N)N)NC(=O)COc1c(Sc2cc(C)cc(C(C)(C)C)c2OCC(=O)N[C@@H](CCCNC(=N)N)C(=O)N[C@@H](CCCNC(=N)N)C(=O)OC)cc(C)cc1C(C)(C)C | 1.56 µg/mL (≈ 1.38 µM) | 1.56 µg/mL (≈ 1.38 µM) | > 200 µg/mL | 1.56 µg/mL (≈ 1.38 µM) | 1.56 µg/mL (≈ 1.38 µM) | 25 µg/mL (≈ 22.2 µM) | 0.78 µg/mL (≈ 0.692 µM) | 0.78 µg/mL (≈ 0.692 µM) | 0.78 µg/mL (≈ 0.692 µM)
4 | CC(C)(C)CC(C)(C)c1ccc(OCC(=O)N[C@@H](CCCNC(=N)N)C(=O)N[C@@H](CCCNC(=N)N)C(N)=O)c(Sc2cc(C(C)(C)CC(C)(C)C)ccc2OCC(=O)N[C@@H](CCCNC(=N)N)C(=O)N[C@@H](CCCNC(=N)N)C(N)=O)c1 | 6.25 µg/mL (≈ 5.29 µM) | 6.25 µg/mL (≈ 5.29 µM) | > 200 µg/mL | 6.25 µg/mL (≈ 5.29 µM) | – | – | – | – | –
5 | COC(=O)[C@H](CCCNC(=N)N)NC(=O)[C@H](CCCNC(=N)N)NC(=O)COc1ccc(C(C)(C)CC(C)(C)C)cc1Sc1cc(C(C)(C)CC(C)(C)C)ccc1OCC(=O)N[C@@H](CCCNC(=N)N)C(=O)N[C@@H](CCCNC(=N)N)C(=O)OC | 3.12 µg/mL (≈ 2.58 µM) | 1.56 µg/mL (≈ 1.29 µM) | > 200 µg/mL | 1.56 µg/mL (≈ 1.29 µM) | 3.12 µg/mL (≈ 2.58 µM) | 3.12 µg/mL (≈ 2.58 µM) | 1.56 µg/mL (≈ 1.29 µM) | 1.56 µg/mL (≈ 1.29 µM) | 1.56 µg/mL (≈ 1.29 µM)
6 | COC(=O)[C@H](CCCNC(=N)N)NC(=O)COc1c(Sc2cc(C)cc(C(C)(C)C)c2OCC(=O)N[C@@H](CCCNC(=N)N)C(=O)OC)cc(C)cc1C(C)(C)C | 3.12 µg/mL (≈ 3.83 µM) | 1.56 µg/mL (≈ 1.91 µM) | > 200 µg/mL | 3.12 µg/mL (≈ 3.83 µM) | 1.56 µg/mL (≈ 1.91 µM) | 12.5 µg/mL (≈ 15.3 µM) | 1.56 µg/mL (≈ 1.91 µM) | 0.78 µg/mL (≈ 0.957 µM) | 0.78 µg/mL (≈ 0.957 µM)
7 | CN(C)CCCCOc1ccc(C(C)(C)CC(C)(C)C)cc1Sc1cc(C(C)(C)CC(C)(C)C)ccc1OCCCCN(C)C | 1.56 µg/mL (≈ 2.43 µM) | 1.56 µg/mL (≈ 2.43 µM) | 23.2 µg/mL | 1.56 µg/mL (≈ 2.43 µM) | – | – | – | – | –
8 | CC(C)(C)CC(C)(C)c1ccc(OCCCCN2CCSCC2)c(Sc2cc(C(C)(C)CC(C)(C)C)ccc2OCCCCN2CCSCC2)c1 | > 50 µg/mL | > 50 µg/mL | > 200 µg/mL | > 50 µg/mL | – | – | – | – | –
9 | Cc1cc(Sc2cc(C)cc(C(C)(C)C)c2O)c(O)c(C(C)(C)C)c1 | > 50 µg/mL | > 50 µg/mL | > 200 µg/mL | > 50 µg/mL | – | – | – | – | –
10 | CCCCNCCCCOc1ccc(C(C)(C)CC(C)(C)C)cc1Sc1cc(C(C)(C)CC(C)(C)C)ccc1OCCCCNCCCC | 6.25 µg/mL (≈ 8.96 µM) | 6.25 µg/mL (≈ 8.96 µM) | 41.5 µg/mL | 6.25 µg/mL (≈ 8.96 µM) | – | – | – | – | –
11 | CC(C)(C)CC(C)(C)c1ccc(O)c(Sc2cc(C(C)(C)CC(C)(C)C)ccc2OCC(=O)N[C@@H](CCCNC(=N)N)C(N)=O)c1 | 12.5 µg/mL (≈ 19.1 µM) | 12.5 µg/mL (≈ 19.1 µM) | > 200 µg/mL | 12.5 µg/mL (≈ 19.1 µM) | – | – | – | – | –
12 | CC(C)(C)CC(C)(C)c1ccc(O)c(Sc2cc(C(C)(C)CC(C)(C)C)ccc2O)c1 | > 50 µg/mL | > 50 µg/mL | > 200 µg/mL | > 50 µg/mL | – | – | – | – | –
13 | COC(=O)[C@H](CCCCN)NC(=O)COc1ccc(C(C)(C)CC(C)(C)C)cc1Sc1cc(C(C)(C)CC(C)(C)C)ccc1OCC(=O)N[C@@H](CCCCN)C(=O)OC | 3.12 µg/mL (≈ 3.71 µM) | 1.56 µg/mL (≈ 1.85 µM) | 162 µg/mL | 3.12 µg/mL (≈ 3.71 µM) | – | – | – | – | –
14 | CCOC(=O)COc1ccc(C(C)(C)CC(C)(C)C)cc1Sc1cc(C(C)(C)CC(C)(C)C)ccc1OCC(=O)OCC | > 50 µg/mL | > 50 µg/mL | > 200 µg/mL | > 50 µg/mL | – | – | – | – | –
15 | COC(=O)[C@H](CCCNC(=N)N)NC(=O)[C@H](CCCNC(=N)N)NC(=O)[C@H](CCCNC(=N)N)NC(=O)COc1ccc(C(C)(C)CC(C)(C)C)cc1Sc1cc(C(C)(C)CC(C)(C)C)ccc1OCC(=O)N[C@@H](CCCNC(=N)N)C(=O)N[C@@H](CCCNC(=N)N)C(=O)N[C@@H](CCCNC(=N)N)C(=O)OC | 3.12 µg/mL (≈ 2.05 µM) | 6.25 µg/mL (≈ 4.1 µM) | > 200 µg/mL | 6.25 µg/mL (≈ 4.1 µM) | – | – | – | – | –
